Molecular target: T1, HMG-CoA reductase (Rattus norvegicus, UniProt P51639)
T1 sequence (P51639 1-887): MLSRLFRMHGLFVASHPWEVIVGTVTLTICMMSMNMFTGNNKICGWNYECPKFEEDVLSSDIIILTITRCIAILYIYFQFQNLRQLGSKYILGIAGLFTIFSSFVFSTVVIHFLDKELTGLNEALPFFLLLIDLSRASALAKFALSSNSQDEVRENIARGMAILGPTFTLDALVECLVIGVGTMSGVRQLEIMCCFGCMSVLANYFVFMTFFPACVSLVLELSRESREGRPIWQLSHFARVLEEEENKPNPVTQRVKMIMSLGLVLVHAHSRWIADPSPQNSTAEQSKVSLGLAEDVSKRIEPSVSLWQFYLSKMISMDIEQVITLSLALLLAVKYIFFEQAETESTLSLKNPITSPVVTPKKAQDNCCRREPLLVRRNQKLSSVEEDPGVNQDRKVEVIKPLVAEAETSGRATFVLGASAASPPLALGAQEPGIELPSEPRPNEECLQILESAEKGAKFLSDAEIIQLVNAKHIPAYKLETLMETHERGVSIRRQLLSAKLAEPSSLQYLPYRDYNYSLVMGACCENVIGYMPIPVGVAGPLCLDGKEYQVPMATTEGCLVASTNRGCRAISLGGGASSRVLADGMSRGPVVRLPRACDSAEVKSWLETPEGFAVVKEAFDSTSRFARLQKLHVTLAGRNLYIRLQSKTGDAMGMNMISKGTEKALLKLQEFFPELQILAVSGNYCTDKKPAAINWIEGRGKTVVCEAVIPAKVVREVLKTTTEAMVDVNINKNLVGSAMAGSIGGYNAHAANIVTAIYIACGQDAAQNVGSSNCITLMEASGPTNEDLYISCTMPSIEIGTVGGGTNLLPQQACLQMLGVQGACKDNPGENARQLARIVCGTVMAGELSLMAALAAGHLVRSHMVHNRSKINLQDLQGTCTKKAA
Test: intrinsic HMG-CoA reductase inhibition, in vitro protocol published in J. Med. Chem., 28, p. 347-358 (1985)
Assay type: biochemical
Settings: read-out: IC₅₀ value (converted)
Description: The intrinsic HMG-CoA reductase inhibition activity of the claimed compounds is measured in the in vitro protocol published in J. Med. Chem., 28, p. 347-358 (1985).

IC50: 4.62 nM
Compound: CCC(C)(C)C(=O)OC1CC(C)=CC2=CC(=O)C(C)C(CCC3CC(O)CC(=O)O3)C21 [6(R)-[2-[8(S)-(2,2-dimethylbutyryloxy)-2(S),6-dimethyl-3-oxo-1,2,7,8,8a(R)-pentahydronaphthyl-1(S)]ethyl]-4(R)-hydroxy-3,4,5,6-tetrahydro-2H-pyran-2-one]
